These results are taken from article PMC10979003, “Development and crystal structures of a potent second-generation dual degrader of BCL-2 and BCL-xL” (Nature Communications, 2024).

The target of one test is T1, BCL-xL R103A/D107A (Homo sapiens, UniProt Q07817, D107A/R103A).
T1 construct: BCL-xL (aa 2-212) and BCL-2 (aa 1-207) transformed cells were grown in LB broth; SMT3 (N); made in house; host or cells: E. coli BL21 (DE3) codon plus
Nature of the test: AlphaScreen binary binding, BCL-xL R103A/D107A. As to conditions: mean ± s.d., n=3. The protocol: (§1) To test the binary/ternary binding affinities of compounds to BCL-2/BCL-xL, AlphaScreen displacement binding assay was performed to test the capabilities of testing compounds to displace a Biotin-tagged Bim (Biotin-[…]) or Bad (Biotin-[…]) from BCL-2 or BCL-xL for BCL-2 and BCL-xL binding affinities, respectively. All reagents were diluted in assay buffer of 25 mM HEPES, pH 7.5, 150 mM NaCl, 0.1% BSA, and 0.005% tween 20 prior incubation. To a 96-well PCR plate (VWR, Cat. No. 82006-636) was added 10 μL Biotin-tagged Bim (15 nM for WT or 50 nM for mutants) or Bad (15 nM for WT or 50 nM for mutants), 10 μL series diluted compounds solution (2 or 3 or 4× dilution), and 10 μL self-made 6×His tagged BCL-2 WT or mutants (25 nM WT or 50 nM mutants) or 10 μL self-made BCL-xL WT and mutants (10 nM WT or 50 nM mutants). […] The luminescence signal was detected on a Biotek’s Synergy Neo2 multimode plate reader installed with an AphaScreen filter cube. The Ki values of each compounds were calculated by fitting data into the “Binding-competitive, One site-Fit Ki” function in GraphPad Prism (9.2.0) based on concentrations of Biotin–peptide used and experimentally determined Kd values of each 6×His protein &&&and Biotin–Peptide pair.

The target in test [1] is T2, BCL-xL R103A/D107A/S110A/Q111A (Homo sapiens, UniProt Q07817, D107A/Q111A/R103A/S110A).
T2 construct: BCL-xL (aa 2-212) and BCL-2 (aa 1-207) transformed cells were grown in LB broth; SMT3 (N); made in house; host or cells: E. coli BL21 (DE3) codon plus
Put plainly: AlphaScreen binary binding, BCL-xL R103A/D107A/S110A/Q111A. As to conditions: mean ± s.d., n=3; read-out: Ki (nM, n=3), BCL-xL R103A/D107A/S110A/Q111AA. Here is the method: as §1

Test [2] concerns the target T3, VCB/PROTAC/BCL-xL ternary complex (Homo sapiens, UniProt P40337+Q07817).
T3 construct: BCL-xL (aa 2-212) and BCL-2 (aa 1-207) transformed cells were grown in LB broth; SMT3 (N); GST (on the VCB complex); made in house; host or cells: E. coli BL21 (DE3) codon plus (stated for the BCL-xL construct)
Put plainly: AlphaLISA ternary complex assay VCB/PROTAC/BCL-xL. As to conditions: cell-free AlphaLISA. The class given is binding. The protocol:
Assays were performed at room temperature. All reagents were diluted in assay buffer of 25 mM HEPES, pH 7.5, 150 mM NaCl, 0.1% BSA, and 0.005% tween 20. To a 96-well PCR plate (VWR, Cat. No. 82006-636) were added 10 μL self-made 6×His tagged BCL-xL (100 nM) or BCL-2 (150 nM), 10 μL series diluted compounds solution (4× dilution) and 10 μL of self-made GST-VCB (100 nM). After incubating at room temperature for 15 min, 5 µL of alpha glutathione-donor beads (160 μg/mL, PerkinElmer, Cat. No. 6765300) and 5 µL of anti-6×His acceptor beads (160 μg/mL, PerkinElmer, Cat. No. AL128M) to each well and incubated for additional 45 min in the dark before being transferred to two adjacent wells (17 µL each) of 384-well white OptiPlate (PerkinElmer, Cat. No. 6008280). The luminescence signal was detected on a Biotek’s Synergy Neo2 multimode plate reader installed with an AphaScreen filter cube. Intensity values were plotted in Graphpad Prism (9.2.0) with PROTAC concentration values represented on a log10 scale.

In a further test the target is T4, HiBiT-BCL-xL/HaloTag-VHL (Homo sapiens, UniProt P40337+Q07817).
T4 construct: full-length BCL-xL and BCL-2 were expressed in cells for the nanoBRET assay; host or cells: 293T
Put plainly: NanoBRET ternary complex formation assay in 293T cells, HiBiT-BCL-xL and HaloTag-VHL. The test is classed as cell-based. As to conditions: 4 h, MG132 pretreatment. Here is the method:
Plasmids HaloTag-VHL (Cat. No. CS1679C155) and CMV HiBiT (Cat. No. CS1956B03) were purchased from Promega. HiBiT-BCL-xL and HiBiT-BCL-2 were constructed previously. 293T cells (8 × 10^5 cells/well in a 6-well plate) were transfected with Lipofectamine (Life Technologies) and 1 μg HaloTag-VHL, 20 ng HiBiT-BCL-xL and 20 ng LgBiT or 1 μg HaloTag-VHL, 20 ng HiBiT-BCL-2 and 20 ng LgBiT. After 48 h, 2 × 10^4 transfected cells were seeded into each well of white 96-well tissue culture plates in Gibco™ Opti-MEM™ I Reduced Serum Medium, No Phenol Red (Cat. No. 11-058-021, Fisher) containing 4% FBS with or without HaloTag NanoBRET 618 Ligand (Cat. No. PRN1662, Promega) and incubated overnight at 37 °C, 5% CO2. […] After treatment, NanoBRET Nano-Glo Substrate (cat. no. N1662, Promega) was added into the medium, and the contents were mixed by shaking the plate for 30 s before measuring donor and acceptor signals on Biotek plate reader. Dual-filtered luminescence was collected with a 450/50 nm bandpass filter (donor, NanoBiT-BCL-XL protein or NanoBiT-BCL-2 protein) and a 610-nm longpass filter (acceptor, HaloTag NanoBRET ligand) using an integration time of 0.5 s. mBRET ratios were calculated following the NanoBRET™ Nano-Glo® Detection System (Cat. No. N1662, Promega).

Another test has as its target T5, BCL-2 R110A E114A (Homo sapiens, UniProt P10415, E114A/R110A).
T5 construct: BCL-xL (aa 2-212) and BCL-2 (aa 1-207) transformed cells were grown in LB broth; made in house; host or cells: E. coli BL21 (DE3) codon plus
Put plainly: AlphaScreen binary binding, BCL-2 R110A E114A. As to conditions: mean ± s.d., n=3. The protocol:
as §1

T2 sequence (Q07817 2-212 R103A/D107A/S110A/Q111A): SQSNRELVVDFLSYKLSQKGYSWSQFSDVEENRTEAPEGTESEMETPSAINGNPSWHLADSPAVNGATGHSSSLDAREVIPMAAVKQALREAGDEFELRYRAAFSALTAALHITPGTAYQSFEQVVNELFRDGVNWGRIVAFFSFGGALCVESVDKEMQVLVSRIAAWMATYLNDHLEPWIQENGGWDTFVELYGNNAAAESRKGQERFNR
T4 sequence (Q07817 whole entry): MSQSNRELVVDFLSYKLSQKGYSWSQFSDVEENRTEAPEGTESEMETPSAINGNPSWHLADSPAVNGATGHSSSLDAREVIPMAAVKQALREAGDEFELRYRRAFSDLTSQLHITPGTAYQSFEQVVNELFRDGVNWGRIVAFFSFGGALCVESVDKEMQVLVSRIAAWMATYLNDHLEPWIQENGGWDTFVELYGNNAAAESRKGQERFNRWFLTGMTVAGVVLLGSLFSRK
T4 sequence (Q15369 whole entry, further chain): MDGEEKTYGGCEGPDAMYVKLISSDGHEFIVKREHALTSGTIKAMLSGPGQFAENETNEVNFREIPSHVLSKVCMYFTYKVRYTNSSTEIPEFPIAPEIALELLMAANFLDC
T4 sequence (Q15370 whole entry, further chain): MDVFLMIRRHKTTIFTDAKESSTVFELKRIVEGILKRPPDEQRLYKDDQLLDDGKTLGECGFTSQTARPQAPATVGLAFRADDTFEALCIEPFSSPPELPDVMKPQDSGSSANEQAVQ
T4 sequence (P40337 whole entry): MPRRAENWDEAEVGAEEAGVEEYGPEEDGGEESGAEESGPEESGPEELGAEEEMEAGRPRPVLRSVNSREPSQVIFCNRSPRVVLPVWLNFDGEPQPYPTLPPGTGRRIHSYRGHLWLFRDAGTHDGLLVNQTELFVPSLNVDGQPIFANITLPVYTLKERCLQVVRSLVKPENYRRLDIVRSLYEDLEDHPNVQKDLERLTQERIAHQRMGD
T3 sequence (Q15369 17-112): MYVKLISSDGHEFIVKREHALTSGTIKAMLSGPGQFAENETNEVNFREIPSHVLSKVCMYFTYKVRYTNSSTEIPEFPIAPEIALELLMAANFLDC
T3 sequence (Q07817 2-212): as the sequence (Q07817 2-212 R103A/D107A/S110A/Q111A) above, with A102R, A106D, A109S, A110Q counted along it
T3 sequence (Q15370 whole entry, further chain, the tested form may be a part): as the sequence (Q15370 whole entry, further chain) above
T3 sequence (P40337 54-213): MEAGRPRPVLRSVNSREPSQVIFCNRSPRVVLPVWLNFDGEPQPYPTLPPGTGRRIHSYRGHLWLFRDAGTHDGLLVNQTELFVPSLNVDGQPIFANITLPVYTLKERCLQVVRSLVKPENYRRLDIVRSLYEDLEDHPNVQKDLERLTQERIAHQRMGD
T1 sequence (Q07817 2-212 R103A/D107A): as the sequence (Q07817 2-212 R103A/D107A/S110A/Q111A) above, with A109S, A110Q counted along it
T5 sequence (P10415 1-207 R110A/E114A): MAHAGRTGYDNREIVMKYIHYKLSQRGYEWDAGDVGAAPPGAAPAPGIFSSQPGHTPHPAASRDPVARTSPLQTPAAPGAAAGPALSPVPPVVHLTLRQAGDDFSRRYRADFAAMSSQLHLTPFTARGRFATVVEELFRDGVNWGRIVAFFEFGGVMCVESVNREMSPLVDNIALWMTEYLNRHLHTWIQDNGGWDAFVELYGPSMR

With `Cc1ncsc1-c1ccc(C(C)NC(=O)C2CC(O)CN2C(=O)C(NC(=O)CCCCCCC(=O)N2CCN(CC3(C)CCC(c4ccc(Cl)cc4)=C(CN4CCN(c5ccc(C(=O)NS(=O)(=O)c6ccc(NC(CCN7CCOCC7)CSc7ccccc7)c(S(=O)(=O)C(F)(F)F)c6)cc5)CC4)C3)CC2)C(C)(C)C)cc1` (centres unmarked) [753b], the figures for the Ki (on BCL-xL R103A/D107A; in test [1]) were 36.7 ± 3 nM and 23 ± 4 nM, respectively.
As to `Cc1ncsc1-c1ccc([C@H](C)NC(=O)[C@@H]2C[C@@H](O)CN2C(=O)[C@@H](NC(=O)CN2CCN(CC(=O)N3CCN(C[C@]4(C)CCC(c5ccc(Cl)cc5)=C(CN5CCN(c6ccc(C(=O)NS(=O)(=O)c7ccc(N[C@H](CCN8C[C@@H]9C[C@H]8CO9)CSc8ccccc8)c(S(=O)(=O)C(F)(F)F)c7)cc6)CC5)C4)CC3)CC2)C(C)(C)C)cc1` [WH244], in test [2], the “Ternary complex formation with BCL-xL (comparison with 753b)” value was “tighter complex”. Moreover, the “Cellular ternary complex formation with BCL-xL (comparison)” value at HiBiT-BCL-xL/HaloTag-VHL is recorded as “significantly lower compound concentration than 753b”. Further, the Ki at BCL-2 R110A E114A was 5.8 ± 0.6 nM.
